Source: patent US20240197709A1, “POTENTIATING THE TUMOR-SELECTIVE EFFECTS OF NQO1-BIOACTIVATABLE AGENT BY USE OF CMET INHIBITOR” (The Trustees of Indiana University, priority 2022, published 2024)

Experiments:
[1] = in vivo; cited from earlier work
[2] = system: IMR90 lung fibroblast cell line; test: long-term cell survival assay, IMR90; format: cell-based, human; details: IMR90, no NQO1, high CAT; criz ± sub-lethal β-lap (3 μM)
Protocol: FIG. 1D. […] LC50 values were calculated from long-term cell survival graphs using GraphPad PRISM; ND denotes Not Determined even at the highest concentration presented. All error bars represent the mean±SEM. **** p<0.0001, *** p<0.001, ** p<0.01, *p<0.05.

[3] = system: Capan2-mCherry microtumor; test: 3D spheroid co-culture, tumor cells; format: cell-based; details: 3D co-culture with NIH3T3-GFP; crizotinib 2 μM, β-lap 2 μM or 4 μM
Protocol: FIG. 5D. Top Inset: Representative brightfield, green (NIH3T3-GFP), red (Capan2-mCherry), and merged images of 3D spheroid co-culture of Capan2-mCherry (cancer cells) and NIH3T3-GFP (normal cells). 3D co-cultures were exposed to specified treatment conditions and imaged at indicated times to monitor drug response. Scale bar=250 μm. Untreated NIH3T3-GFP 3D spheroid culture by itself (imaged at indicated times) was added for reference.
FIG. 5E. Bar graph of Capan2-mCherry 3D spheroid microtumor growth at specified treatment conditions over time. Asterisk (*) indicates synergistic response in the combination treatment compared to the corresponding individual treatments alone.
Next, we investigated the tumor-selectivity and efficacy of our combination treatment strategy using 3D co-culture spheroids of Capan2 PDAC (permanently labelled with mCherry) and NIH3T3 mouse embryonic fibroblast cells (permanently labelled with GFP) to mimic physiological cell-cell and cell-environment interactions during treatment. […] These are consistent with patient data comparing associated normal tissues versus tumors in pancreas (FIGS. 1-1B, 1-1G) and lungs (FIGS. 1A, 1-1B, 1-1H). Using confocal fluorescent microscopy, we noted that NIH3T3-GFP fibroblast cells were surrounding the Capan2-mCherry PDAC cells in the 3D spheroid co-culture (FIG. 5D).

Capan2 shMET = test: long-term survival (DNA assay), Capan2 shSCR versus shMET; format: cell-based; details: DIC 50 μM
Text: FIG. 1-1R. Graph showing relative long-term survival in isogenic Capan2 shSCR versus shMET cell lines using the DNA assay.
Dicoumarol (DIC) is a well-established NQO1 inhibitor (Asher, et al., Biochemistry 2006, 45(20), 6372-8; Motea, et al., Clin Cancer Res 2019, 25(8), 2601-2609; Huang, et al., Cancer Cell 2016, 30(6), 940-952).

[4] = system: A549 NSCLC cell migration and invasion; details: A549, crizotinib+β-lap+DIC
Protocol: FIG. 4A. Representative images of A549 NSCLC cell migration at indicated treatment conditions at 16 h post-treatment using a Boyden chamber migration assay: 2 h pre-treatment with criz followed by additional 2 h with criz±β-lap.
FIG. 4B. Bar graph showing quantification of cell migration expressed as a percent of control (vehicle).
FIG. 4C. Representative images of A549 NSCLC cell invasion at indicated treatment conditions at 16 h post-treatment using a matrigel-coated Boyden chamber invasion assay: 2 h pre-treatment with criz followed by additional 2 h with criz±β-lap.
FIG. 4D. Bar graph showing quantification of cell invasion expressed as a percent of control (vehicle).

[5] = system: cellular hydrogen peroxide (H2O2) levels in A549 cells; test: ROS-Glo H2O2 Assay; format: cell-based; details: A549, DIC 50 μM
Protocol: FIG. 2-1A. […] Growth media was then replaced with fresh media containing β-lap (3 μM) alone, criz alone (1 μM) or combination±DIC (50 μM) and collected at 15 and 120 min to measure H2O2 production using the ROS-Glo™ H2O2 Assay from Promega (Madison, WI). The assay was performed in three biological replicates.
Next, we sought to investigate the mechanistic role of cMET in promoting resistance to ROS-induced DNA lesions caused by the futile redox cycling of β-lap with NQO1. […] In response to H2O2 stimulation, cMET can translocate into the nucleus where it interacts with PARP1 for activation to enhance the repair of ROS-induced DNA damage. […] Next we performed PARP1 immunoprecipitation studies to determine whether it associates with activated cMET in the nucleus following treatment with β-lap at increasing doses.

SMILES | MTD [1] [mg twice daily] | long-term cell survival (sensitivity) [2] | Capan2-mCherry microtumor growth [3] | effect of added DIC on β-lap sensitivity (Capan2 shMET) | migration and invasion, DIC added to the combination treatment [4] | H2O2 formation, DIC added to β-lap+criz [5]
C[C@@H](Oc1cc(-c2cnn(C3CCNCC3)c2)cnc1N)c1c(Cl)ccc(F)c1Cl [crizotinib] | 250 | remained resistant | very little effect on tumor growth |  |  | 
O=c1oc2ccccc2c(O)c1Cc1c(O)c2ccccc2oc1=O [DIC, Dicoumarol] |  |  |  | rescued | restored the ability of A549 to migrate and invade | prevented H2O2 formation
